Measurements published in patent US10597387B2, “Methods to treat lymphoplasmacytic lymphoma” (Dana-Farber Cancer Institute, Inc., priority 2013, dated 2020).
Like-named read-outs stand apart in the source and are kept apart here.

What was measured:
BTK [1] = molecular target: T1, BTK (Homo sapiens (Human), UniProt Q06187); test: Invitrogen Select Screening kinase assay; assay type: biochemical; conditions: in vitro
Description: The in vitro activity of the compounds described herein in inhibiting TAK1, HCK, and other kinases were obtained using an Invitrogen Select Screening assay as known in the art. The IC50 values determined from this assay are shown below.

ATR = ATR (Homo sapiens (Human), UniProt Q13535); test: KiNativ kinase profiling; assay type: binding; conditions: ATP, A375 cells, read-out: inhibition of kinase labeling
Sequence of ATR (Q13535 whole entry): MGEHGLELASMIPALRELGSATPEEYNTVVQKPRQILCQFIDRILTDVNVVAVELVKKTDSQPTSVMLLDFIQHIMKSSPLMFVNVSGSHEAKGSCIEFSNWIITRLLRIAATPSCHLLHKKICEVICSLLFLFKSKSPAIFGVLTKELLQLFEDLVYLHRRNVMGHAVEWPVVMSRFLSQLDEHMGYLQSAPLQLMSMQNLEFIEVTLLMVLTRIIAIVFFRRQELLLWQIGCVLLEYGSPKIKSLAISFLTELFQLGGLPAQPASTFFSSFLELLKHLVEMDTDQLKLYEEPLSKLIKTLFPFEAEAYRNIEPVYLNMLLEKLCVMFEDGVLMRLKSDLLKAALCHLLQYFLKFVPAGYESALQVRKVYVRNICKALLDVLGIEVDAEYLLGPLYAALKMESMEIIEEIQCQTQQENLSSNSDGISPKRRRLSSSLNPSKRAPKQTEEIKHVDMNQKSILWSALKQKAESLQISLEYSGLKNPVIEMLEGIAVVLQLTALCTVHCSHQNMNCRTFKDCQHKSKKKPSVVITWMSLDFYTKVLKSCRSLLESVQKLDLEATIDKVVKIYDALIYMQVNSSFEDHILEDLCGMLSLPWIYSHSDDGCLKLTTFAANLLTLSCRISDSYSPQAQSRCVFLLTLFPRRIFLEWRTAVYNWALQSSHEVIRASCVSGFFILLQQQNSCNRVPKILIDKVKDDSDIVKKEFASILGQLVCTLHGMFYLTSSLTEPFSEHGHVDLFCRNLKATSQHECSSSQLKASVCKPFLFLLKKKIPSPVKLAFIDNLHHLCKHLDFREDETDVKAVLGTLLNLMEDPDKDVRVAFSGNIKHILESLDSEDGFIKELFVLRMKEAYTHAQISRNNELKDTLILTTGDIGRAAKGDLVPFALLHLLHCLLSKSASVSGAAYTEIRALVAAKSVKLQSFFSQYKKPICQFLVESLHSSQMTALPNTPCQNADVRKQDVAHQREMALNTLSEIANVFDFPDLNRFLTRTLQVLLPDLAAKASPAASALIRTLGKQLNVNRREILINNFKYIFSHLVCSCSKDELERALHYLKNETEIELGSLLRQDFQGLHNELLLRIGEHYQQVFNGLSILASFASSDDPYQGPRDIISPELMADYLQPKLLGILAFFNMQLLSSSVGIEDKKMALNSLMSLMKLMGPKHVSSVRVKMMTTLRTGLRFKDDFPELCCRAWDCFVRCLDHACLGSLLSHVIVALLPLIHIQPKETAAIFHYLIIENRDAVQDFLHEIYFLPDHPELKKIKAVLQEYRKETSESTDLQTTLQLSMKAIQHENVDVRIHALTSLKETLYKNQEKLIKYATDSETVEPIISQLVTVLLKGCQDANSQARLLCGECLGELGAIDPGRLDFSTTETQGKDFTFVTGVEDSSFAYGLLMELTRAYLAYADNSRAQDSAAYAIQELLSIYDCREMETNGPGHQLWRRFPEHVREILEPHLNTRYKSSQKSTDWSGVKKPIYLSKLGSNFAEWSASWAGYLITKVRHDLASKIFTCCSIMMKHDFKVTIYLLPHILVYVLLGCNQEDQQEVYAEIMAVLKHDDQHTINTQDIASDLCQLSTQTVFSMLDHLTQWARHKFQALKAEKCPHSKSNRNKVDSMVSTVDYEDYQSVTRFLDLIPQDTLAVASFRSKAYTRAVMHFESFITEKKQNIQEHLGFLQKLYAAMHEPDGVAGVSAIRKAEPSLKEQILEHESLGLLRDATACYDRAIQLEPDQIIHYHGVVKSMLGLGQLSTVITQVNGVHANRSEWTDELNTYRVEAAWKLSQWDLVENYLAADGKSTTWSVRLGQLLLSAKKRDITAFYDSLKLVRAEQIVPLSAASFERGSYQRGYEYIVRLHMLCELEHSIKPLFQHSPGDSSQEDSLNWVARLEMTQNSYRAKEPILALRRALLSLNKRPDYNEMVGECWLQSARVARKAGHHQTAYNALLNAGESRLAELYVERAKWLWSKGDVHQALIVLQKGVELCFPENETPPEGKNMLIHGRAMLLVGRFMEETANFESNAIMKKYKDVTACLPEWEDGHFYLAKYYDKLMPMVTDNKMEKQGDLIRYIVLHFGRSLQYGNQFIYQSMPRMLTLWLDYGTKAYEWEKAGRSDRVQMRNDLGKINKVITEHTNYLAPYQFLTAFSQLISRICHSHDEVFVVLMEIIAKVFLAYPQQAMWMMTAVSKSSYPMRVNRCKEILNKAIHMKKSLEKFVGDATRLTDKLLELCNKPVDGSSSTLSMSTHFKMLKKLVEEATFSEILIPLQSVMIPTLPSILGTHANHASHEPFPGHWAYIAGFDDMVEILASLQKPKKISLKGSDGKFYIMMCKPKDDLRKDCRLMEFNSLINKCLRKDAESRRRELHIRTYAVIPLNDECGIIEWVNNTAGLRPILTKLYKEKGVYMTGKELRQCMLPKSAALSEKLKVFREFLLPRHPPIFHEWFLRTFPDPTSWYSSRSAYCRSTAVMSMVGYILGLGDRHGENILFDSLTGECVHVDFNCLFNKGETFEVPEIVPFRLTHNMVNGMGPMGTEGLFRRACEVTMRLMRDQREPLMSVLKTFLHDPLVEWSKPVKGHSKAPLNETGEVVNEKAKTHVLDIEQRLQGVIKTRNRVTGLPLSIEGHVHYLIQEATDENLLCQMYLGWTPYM

BARK1 = BARK1 (Homo sapiens (Human), UniProt P25098); test: KiNativ kinase profiling; assay type: binding; conditions: Lys2, A375 cells, read-out: inhibition of kinase labeling
Sequence of BARK1 (P25098 whole entry): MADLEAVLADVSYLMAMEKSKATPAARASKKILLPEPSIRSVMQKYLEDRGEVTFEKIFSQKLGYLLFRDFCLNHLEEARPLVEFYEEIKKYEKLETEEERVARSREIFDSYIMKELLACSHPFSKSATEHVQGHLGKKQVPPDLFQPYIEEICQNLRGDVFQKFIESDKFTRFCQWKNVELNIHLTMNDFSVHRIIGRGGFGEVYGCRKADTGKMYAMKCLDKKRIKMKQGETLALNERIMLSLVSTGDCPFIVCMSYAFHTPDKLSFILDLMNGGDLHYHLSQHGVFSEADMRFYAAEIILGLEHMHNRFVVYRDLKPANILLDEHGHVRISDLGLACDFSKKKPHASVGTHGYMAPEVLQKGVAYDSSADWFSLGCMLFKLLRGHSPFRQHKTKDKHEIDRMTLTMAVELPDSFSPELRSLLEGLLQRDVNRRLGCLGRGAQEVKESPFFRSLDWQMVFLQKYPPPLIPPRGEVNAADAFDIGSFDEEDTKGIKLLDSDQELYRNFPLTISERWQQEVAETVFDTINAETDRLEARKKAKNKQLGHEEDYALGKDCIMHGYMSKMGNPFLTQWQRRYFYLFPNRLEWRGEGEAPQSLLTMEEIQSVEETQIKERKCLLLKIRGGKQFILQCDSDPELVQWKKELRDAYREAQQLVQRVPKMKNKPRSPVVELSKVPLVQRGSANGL

BTK [2] = molecular target: T1, BTK; test: KiNativ kinase profiling; assay type: binding; conditions: read-out: inhibition of kinase labeling
CaMK1d = CaMK1d (Homo sapiens (Human), UniProt Q8IU85); test: KiNativ kinase profiling; assay type: binding; conditions: Lys1, A375 cells, read-out: inhibition of kinase labeling
[3] = system: CaMK2a, CaMK2b, CaMK2d, CaMK2g; test: KiNativ kinase profiling; assay type: binding, Homo sapiens; conditions: Lys2, 1 μM, A375 cells
CDK2 = CDK2 (Homo sapiens (Human), UniProt P24941); test: KiNativ kinase profiling; assay type: binding; conditions: Lys2, A375 cells, read-out: inhibition of kinase labeling
CDK5 = CDK5 (Homo sapiens (Human), UniProt Q00535); test: KiNativ kinase profiling; assay type: binding; conditions: Lys2, A375 cells, read-out: inhibition of kinase labeling
FER = FER (Homo sapiens (Human), UniProt P16591); test: KiNativ kinase profiling; assay type: binding; conditions: Lys1, A375 cells, read-out: inhibition of kinase labeling
FGR = FGR (Homo sapiens (Human), UniProt P09769); test: KiNativ kinase profiling; assay type: binding; conditions: Activation Loop, A375 cells, read-out: inhibition of kinase labeling
FRAP = FRAP (Homo sapiens (Human), UniProt P42345); test: KiNativ kinase profiling; assay type: binding; conditions: ATP, A375 cells, read-out: inhibition of kinase labeling
GSK3B = GSK3B (Homo sapiens (Human), UniProt P49841); test: KiNativ kinase profiling; assay type: binding; conditions: Lys2, A375 cells, read-out: inhibition of kinase labeling
IRAK4 = IRAK4 (Homo sapiens (Human), UniProt Q9NWZ3); test: KiNativ kinase profiling; assay type: binding; conditions: Lys2, A375 cells, read-out: inhibition of kinase labeling
MAP2K1 = MAP2K1 (Homo sapiens (Human), UniProt Q02750); test: KiNativ kinase profiling; assay type: binding; conditions: Lys2, A375 cells, read-out: inhibition of kinase labeling
Sequence of MAP2K1 (Q02750 whole entry): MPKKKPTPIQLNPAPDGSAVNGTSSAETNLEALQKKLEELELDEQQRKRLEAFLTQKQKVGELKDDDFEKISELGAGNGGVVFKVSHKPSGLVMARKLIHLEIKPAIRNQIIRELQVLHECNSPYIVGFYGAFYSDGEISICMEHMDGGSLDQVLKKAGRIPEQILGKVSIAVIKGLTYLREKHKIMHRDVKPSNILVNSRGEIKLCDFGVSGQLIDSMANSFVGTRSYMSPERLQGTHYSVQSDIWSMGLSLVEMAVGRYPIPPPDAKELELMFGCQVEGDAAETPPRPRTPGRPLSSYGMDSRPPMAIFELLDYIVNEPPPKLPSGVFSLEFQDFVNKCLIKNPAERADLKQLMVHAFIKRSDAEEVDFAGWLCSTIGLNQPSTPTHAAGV

MAP2K1, MAP2K2 = test: KiNativ kinase profiling; assay type: binding, Homo sapiens; conditions: Lys2, 1 μM, A375 cells
MAP2K3 = MAP2K3 (Homo sapiens (Human), UniProt P46734); test: KiNativ kinase profiling; assay type: binding; conditions: Lys2, A375 cells, read-out: inhibition of kinase labeling
Sequence of MAP2K3 (P46734 whole entry): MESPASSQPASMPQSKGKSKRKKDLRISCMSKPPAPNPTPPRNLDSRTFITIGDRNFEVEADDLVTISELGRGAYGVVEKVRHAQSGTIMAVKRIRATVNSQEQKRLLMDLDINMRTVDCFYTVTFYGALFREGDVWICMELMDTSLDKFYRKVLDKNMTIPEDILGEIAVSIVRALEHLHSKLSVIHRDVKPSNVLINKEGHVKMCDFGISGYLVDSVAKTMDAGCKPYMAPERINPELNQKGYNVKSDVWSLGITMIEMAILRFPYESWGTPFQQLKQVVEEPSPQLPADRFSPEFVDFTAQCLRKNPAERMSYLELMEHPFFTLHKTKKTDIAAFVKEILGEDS

MAP2K4 = MAP2K4 (Homo sapiens (Human), UniProt P45985); test: KiNativ kinase profiling; assay type: binding; conditions: Lys2, A375 cells, read-out: inhibition of kinase labeling
MAP2K6 = MAP2K6 (Homo sapiens (Human), UniProt P52564); test: KiNativ kinase profiling; assay type: binding; conditions: Lys2, A375 cells, read-out: inhibition of kinase labeling
Sequence of MAP2K6 (P52564 whole entry): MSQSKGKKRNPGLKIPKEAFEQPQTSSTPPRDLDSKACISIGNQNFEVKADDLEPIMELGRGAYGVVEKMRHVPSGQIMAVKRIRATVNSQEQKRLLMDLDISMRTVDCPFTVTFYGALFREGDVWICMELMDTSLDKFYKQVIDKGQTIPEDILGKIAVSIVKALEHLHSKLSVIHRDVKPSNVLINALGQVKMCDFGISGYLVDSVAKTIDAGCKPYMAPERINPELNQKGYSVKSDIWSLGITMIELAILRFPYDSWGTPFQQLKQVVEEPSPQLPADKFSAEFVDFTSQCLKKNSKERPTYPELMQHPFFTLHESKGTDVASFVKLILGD

MARK2, MARK3 = test: KiNativ kinase profiling; assay type: binding, Homo sapiens; conditions: Lys2, 1 μM, A375 cells
NDR2 = NDR2 (Homo sapiens (Human), UniProt Q9Y2H1); test: KiNativ kinase profiling; assay type: binding; conditions: Lys2, A375 cells, read-out: inhibition of kinase labeling
p70S6K = p70S6K (Homo sapiens (Human), UniProt P23443); test: KiNativ kinase profiling; assay type: binding; conditions: Lys2, A375 cells, read-out: inhibition of kinase labeling
PI4KB = PI4KB (Homo sapiens (Human), UniProt Q9UBF8); test: KiNativ kinase profiling; assay type: binding; conditions: ATP, A375 cells, read-out: inhibition of kinase labeling
PIK3CB = PIK3CB (Homo sapiens (Human), UniProt P42338); test: KiNativ kinase profiling; assay type: binding; conditions: ATP, A375 cells, read-out: inhibition of kinase labeling
PIK3CD = PIK3CD (Homo sapiens (Human), UniProt O00329); test: KiNativ kinase profiling; assay type: binding; conditions: ATP, A375 cells, read-out: inhibition of kinase labeling
PIP4K2A = PIP4K2A (Homo sapiens (Human), UniProt P48426); test: KiNativ kinase profiling; assay type: binding; conditions: ATP, A375 cells, read-out: inhibition of kinase labeling
PKD2 = PKD2 (Homo sapiens (Human), UniProt Q9BZL6); test: KiNativ kinase profiling; assay type: binding; conditions: Lys1, A375 cells, read-out: inhibition of kinase labeling
PKN1 = PKN1 (Homo sapiens (Human), UniProt Q16512); test: KiNativ kinase profiling; assay type: binding; conditions: Lys1, A375 cells, read-out: inhibition of kinase labeling
RSK1 domain2 = RSK1 domain2 (Homo sapiens (Human), UniProt Q15418); test: KiNativ kinase profiling; assay type: binding; conditions: Lys2, A375 cells, read-out: inhibition of kinase labeling
RSK2 domain1 = RSK2 domain1 (Homo sapiens (Human), UniProt P51812); test: KiNativ kinase profiling; assay type: binding; conditions: Lys2, A375 cells, read-out: inhibition of kinase labeling
SGK3 = SGK3 (Homo sapiens (Human), UniProt Q96BR1); test: KiNativ kinase profiling; assay type: binding; conditions: Lys1, A375 cells, read-out: inhibition of kinase labeling
TAO1, TAO3 = test: KiNativ kinase profiling; assay type: binding, Homo sapiens; conditions: Lys2, 1 μM, A375 cells
TAO2 = TAO2 (Homo sapiens (Human), UniProt Q9UL54); test: KiNativ kinase profiling; assay type: binding; conditions: Lys2, A375 cells, read-out: inhibition of kinase labeling
[4] = system: ZC1/HGK, ZC2/TNIK, ZC3/MINK; test: KiNativ kinase profiling; assay type: binding, Homo sapiens; conditions: Lys2, 1 μM, A375 cells

T1 sequence (Q06187 whole entry): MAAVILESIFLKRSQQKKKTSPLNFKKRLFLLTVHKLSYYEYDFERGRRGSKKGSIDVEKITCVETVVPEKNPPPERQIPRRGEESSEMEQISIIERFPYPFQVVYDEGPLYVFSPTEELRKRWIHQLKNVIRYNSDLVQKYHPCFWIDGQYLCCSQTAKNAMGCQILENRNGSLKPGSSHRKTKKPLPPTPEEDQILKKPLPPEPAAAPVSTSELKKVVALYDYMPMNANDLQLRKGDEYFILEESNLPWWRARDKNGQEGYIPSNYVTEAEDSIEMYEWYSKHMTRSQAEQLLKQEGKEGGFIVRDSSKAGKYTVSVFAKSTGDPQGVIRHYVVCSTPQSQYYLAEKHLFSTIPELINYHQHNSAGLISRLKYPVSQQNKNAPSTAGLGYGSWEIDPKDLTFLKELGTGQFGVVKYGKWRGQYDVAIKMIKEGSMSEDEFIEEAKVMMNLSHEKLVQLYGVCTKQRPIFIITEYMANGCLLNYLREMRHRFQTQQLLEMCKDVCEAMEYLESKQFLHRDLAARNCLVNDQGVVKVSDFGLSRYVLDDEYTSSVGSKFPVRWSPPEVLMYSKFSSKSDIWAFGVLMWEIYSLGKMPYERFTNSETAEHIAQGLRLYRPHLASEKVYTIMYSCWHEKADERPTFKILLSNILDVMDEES

Cc1ccc(C(=O)Nc2cccc(C(C)(C)C#N)c2)cc1NC(=O)c1cncc(-c2cccs2)c1 [I-6, N-(5-((3-(2-cyanopropan-2-yl)phenyl)carbamoyl)-2-methylphenyl)-5-(thiophen-2-yl)nicotinamide]
IC50 (BTK [1]): 1150 nM | inhibition at 1 µM (ATR): 26.2% | inhibition at 1 µM (BARK1): -1.2% | inhibition at 1 µM (BTK [2]; Activation Loop, A375 cells): -12.5% | inhibition at 1 µM (BTK [2]; Lys1, A375 cells): 7.8% | inhibition at 1 µM (CaMK1d): -17.8% | inhibition of kinase labeling [3]: 0.7% | inhibition at 1 µM (CDK2): 8.6% | inhibition at 1 µM (CDK5): 9.3% | inhibition at 1 µM (FER): -9.6% | inhibition at 1 µM (FGR): 3.5% | inhibition at 1 µM (FRAP): -8.8% | inhibition at 1 µM (GSK3B): 15.9% | inhibition at 1 µM (IRAK4): -1.4% | inhibition at 1 µM (MAP2K1): 10.8% | inhibition of kinase labeling (MAP2K1, MAP2K2): 4.1% | inhibition at 1 µM (MAP2K3): 4.9% | inhibition at 1 µM (MAP2K4): -14.6% | inhibition at 1 µM (MAP2K6): 9.4% | inhibition of kinase labeling (MARK2, MARK3): 17.2% | inhibition at 1 µM (NDR2): -12.5% | inhibition at 1 µM (p70S6K): 7.4% | inhibition at 1 µM (PI4KB): -15.1% | inhibition at 1 µM (PIK3CB): 2.8% | inhibition at 1 µM (PIK3CD): -6.8% | inhibition at 1 µM (PIP4K2A): 12.8% | inhibition at 1 µM (PKD2): -17.8% | inhibition at 1 µM (PKN1): -35.2% | inhibition at 1 µM (RSK1 domain2): -22.9% | inhibition at 1 µM (RSK2 domain1): 5% | inhibition at 1 µM (SGK3): -7.2% | inhibition of kinase labeling (TAO1, TAO3): 11.9% | inhibition at 1 µM (TAO2): 33.4% | inhibition of kinase labeling [4]: 27%
